According to publication PMC11306024, “Novel metabolite madeirone and neomarinone extracted from Streptomyces aculeoletus as marine antibiofilm and antifouling agents” (Frontiers in Chemistry, 2024):

Key:
[1] = Mussel larvae acute toxicity (mortality); settings: Mytilus galloprovincialis, in vivo, other: waterborne exposure in 24-well plates; 15 h acute exposure
Method: The in vivo antimacrofouling activity of compounds (1) and (2) was evaluated against mussel M. galloprovincialis adhesive larvae (plantigrades) in an acute bioassay. Juvenile mussel aggregates were harvested from the intertidal rocky shore during low spring tides at Memória beach, Matosinhos, Portugal. In the laboratory, precisely before the bioassays, mussel plantigrade larvae were meticulously screened and isolated from the juvenile aggregates using a binocular microscope (Olympus SZX2-ILLT, Hamburg, Germany). The isolated larvae were then washed with filtered seawater to eliminate organic debris, and competent plantigrade larvae, characterized by foot exploratory behavior, were selected for the exposure bioassays, following established protocols ([Almeida et al., 2017]; [Almeida et al., 2020]; [Antunes et al., 2019]; [Mabrouk et al., 2020]). Plantigrades were exposed in 24-well polystyrene plates for 15 h in darkness at 18°C. DMSO served as the solvent for the testing compounds in stock and working solutions. The DMSO concentration in the tested solutions was consistently maintained at 0.1%. […] The anti-settlement bioactivity was assessed based on the presence or absence of fixed byssal threads produced by each individual larva for all tested conditions. […] EC50 values for each compound were calculated using Probit regression analysis. […]

[2] = test system: P. batsensis; test: Antibiofilm activity (inhibition of biofilm formation); assay type: cell-based, Pseudo-oceanicola batsensis DSM 15984; settings: for inhibition at 0.98 µg/mL / inhibition at 1.95 µg/mL / inhibition at 3.91 µg/mL / inhibition at 7.81 µg/mL / inhibition at 15.6 µg/mL / inhibition at 31.25 µg/mL: 48 h; for inhibition at 15.6 µg/mL: 15.60 µg/mL
Method: (§1) To assess antimicrofouling activity, we selected five marine bacterial species as models: Marinobacter hydrocarbonoclasticus DSM 8798 (ATCC 49840), C. marina DSM 4741, Phaeobacter inhibens DSM 17,395, Pseusooceanicola batsensis DSM 15,984, and Micrococcus luteus DSM 20030 (ATCC 4698) ([Michael et al., 2016]). These strains, sourced from DSMZ (Leibniz Institute DSMZ—German Collection of Microorganisms and Cell Cultures), were cultured in liquid marine broth (Carl Roth GmbH, Karlsruhe, Germany) with agitation at 180 rpm or on agar-supplemented marine broth. Incubation temperatures were set at 28°C for M. hydrocarbonoclasticus and Cobetia marina, 30°C for P. inhibens and P. batsensis, while M. luteus was maintained at 37°C in Brain Heart Infusion broth (BHI, Becton Dickinson, GmbH, Heidelberg, Germany) under similar agitation conditions.
The antibiofilm potential of compounds (1) and (2) against the five marine bacterial species was investigated in 96-well polystyrene flat-bottom microplates (Nunclon Delta Surface, Thermo Scientific, Roskilde, Denmark), as described previously ([Bauermeister et al., 2019]; [Pereira et al., 2020]). In the initial screening, bacterial overnight cultures were diluted to an OD600 of 0.2 and incubated statically at appropriate temperatures. The cultures were tested at 31.25, 15.60, 7.81, 3.91, 1.95, 0.98 μg/mL concentrations (2-fold serial dilutions) of compounds (1) and (2), solubilized in DMSO, or left untreated. After 24 h (M. hydrocarbonoclasticus, C. marina) or 48 h (P. batsensis, P. inhibens, M. luteus) incubation, OD600 was measured. The planktonic cells and media were discarded, and the wells were washed twice with deionized water. Biofilms were fixed, stained, and quantified by measuring the OD600 after solubilization with acetic acid. Biofilm inhibition percentages were calculated relative to untreated bacterial species, using DMSO as a negative control and CuSO4 (0.16 μg/mL), as a positive control. All assays were performed in triplicate, and the results represent the mean and standard error of the mean (SEM). Statistical analysis was conducted using GraphPad Prism 8.0.2, employing one-way ANOVA followed by Dunnett’s multiple comparisons test against the negative control.

[3] = test system: M. luteus; test: Antibacterial activity (growth inhibition, OD600); assay type: cell-based, Micrococcus luteus DSM 20030; settings: 48 h
Method: as §1
The antibacterial efficacy of compounds (1) and (2) was assessed in 96-well polystyrene flat-bottom microplates (Nunclon Delta Surface, Thermo Scientific, Roskilde, Denmark) following established procedures ([Bauermeister et al., 2019]). In the initial screening, bacterial overnight cultures were diluted to an optical density (OD600nm) of 0.2 and incubated statically at appropriate temperatures. The cultures were treated with the following final concentrations per well: 31.25, 15.60, 7.81, 3.91, 1.95, and 0.98 μg/mL (2-fold serial dilutions) of the compounds, solubilized in DMSO, or left untreated. After 24 h (M. hydrocarbonoclasticus, C. marina) or 48 h (P. batsensis, P. inhibens, M. luteus) incubation, optical density at 600 nm (OD600) was measured using a Molecular Devices Spectra Max 190. Growth inhibition percentages were calculated relatively to untreated bacterial species, using DMSO as a negative control. CuSO4 (0.16 μg/mL), a recognized antifouling agent, was used as positive control. All assays were conducted in triplicate, and the results represent the mean and standard error of the mean (SEM). Statistical analysis was carried out using GraphPad Prism 8.0.2 (San Diego, CA, United States), employing one-way ANOVA followed by Dunnett’s multiple comparisons test against the negative control.

Compound | LC50 at 15 h [1] [µg/mL] | inhibition at 0.98 µg/mL [2] [%] | inhibition at 1.95 µg/mL [2] [%] | inhibition at 3.91 µg/mL [2] [%] | inhibition at 7.81 µg/mL [2] [%] | inhibition at 15.6 µg/mL [2] [%] | inhibition at 31.25 µg/mL [2] [%] | Biofilm inhibition, up to (highest over tested concentrations) P. batsensis ([2]; 0.98-31.25 µg/mL tested) | Growth inhibition (%) M. luteus ([3]; 15.60 µg/mL) | Growth inhibition (%) M. luteus ([3]; 31.25 µg/mL) | inhibition at 0.98 µg/mL ([3]; Micrococcus luteus, 0.98 µg/mL) [%] | inhibition at 1.95 µg/mL ([3]; Micrococcus luteus, 1.95 µg/mL) [%] | inhibition at 3.91 µg/mL ([3]; Micrococcus luteus, 3.91 µg/mL) [%] | inhibition at 7.81 µg/mL ([3]; Micrococcus luteus, 7.81 µg/mL) [%] | Growth inhibition (%) M. luteus ([3]; 0.98 µg/mL) | Growth inhibition (%) M. luteus ([3]; 1.95 µg/mL) | Growth inhibition (%) M. luteus ([3]; 3.91 µg/mL) | Growth inhibition (%) M. luteus ([3]; 7.81 µg/mL) | inhibition at 15.6 µg/mL ([3]; Micrococcus luteus, 15.60 µg/mL) [%] | inhibition at 31.25 µg/mL ([3]; Micrococcus luteus, 31.25 µg/mL) [%]
CC1=CCC[C@@H](C)[C@]1(C)CC[C@@]1(C)c2c(O)cc3c(c2O[C@@H]1C)C(=O)C(C)=C(O)C3=O [compound 2, neomarinone] | > 4 | 11.7 ± 6.2 | 13.9 ± 5.7 | 19.4 ± 4 | 26.3 ± 5.9 | 34.9 ± 4.8 | 40.7 ± 4.7 | up to 40% | N.I. | N.I. | 1.8 ± 0.4 | 3.8 ± 1.7 | 9 ± 0.9 | 6.8 ± 1 |  |  |  |  |  | 
CC1=CCC[C@@H](C)[C@]1(C)CC[C@@]1(C)c2c(O)cc3c(c2O[C@@H]1C)C(=O)C=C(CO)C3=O (relative stereo) [compound 1, madeirone] | > 10 | 10.8 ± 1.7 | 17.9 ± 2.4 | 24.9 ± 2.9 | 34.8 ± 2.7 | 49.1 ± 0.7 | 59.2 ± 0.4 |  | N.I. |  |  |  |  |  | N.I. | N.I. | N.I. | N.I. | 9.2 | 20 ± 0.5
